Assay [1] deals with T1, HiBit-BRG1 (Homo sapiens, UniProt P51532).
T1 construct: expressed in transfected cells
As to the kind of experiment: HiBit-BRG1 cell-based degradation assay (Nano-Glo HiBiT Lytic Detection). The following applies: HeLa cells expressing HiBit-BRG1 and LgBit, 24 h; for DC50: read-out: BRG1 HiBit Degradation IC50; for Dmax: read-out: BRG1 HiBit Degradation Maximum (%). The essentials: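 Luminescence from Nano-Glo HiBiT lytic detection, read after 24 h compound exposure, scored degradation in a stable HeLa HiBiT-BRG1/LgBit line seeded at 5000 cells/well. DMSO wells defined 0% and 2 μM known BRM/BRG1 degrader wells defined full degradation.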
A general note: With HiBiT, luminescence reflects the tagged protein that the partner subunit can reach.

Assay [2] deals with T2, HiBiT-BRM (Homo sapiens, UniProt P51531).
T2 construct: expressed in transfected cells
Kind of assay: HiBiT-BRM cell-based degradation assay (Nano-Glo HiBiT Lytic Detection). The settings on record: HeLa cells expressing HiBiT-BRM, 24 h; for DC50: read-out: BRM HiBit Degradation IC50. The gist of the method: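 Luminescence from HiBiT–LgBiT complementation in lysates of a stable HiBiT-BRM HeLa line measured after 24 h compound exposure. Degradation expressed as percent relative to DMSO-treated cells and cells given 2 μM of a known BRM/BRG1 degrader.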

The values that follow come from patent publication US20230150974A1 (Foghorn Therapeutics Inc., priority 2020, published 2023).

T2 sequence (P51531 whole entry): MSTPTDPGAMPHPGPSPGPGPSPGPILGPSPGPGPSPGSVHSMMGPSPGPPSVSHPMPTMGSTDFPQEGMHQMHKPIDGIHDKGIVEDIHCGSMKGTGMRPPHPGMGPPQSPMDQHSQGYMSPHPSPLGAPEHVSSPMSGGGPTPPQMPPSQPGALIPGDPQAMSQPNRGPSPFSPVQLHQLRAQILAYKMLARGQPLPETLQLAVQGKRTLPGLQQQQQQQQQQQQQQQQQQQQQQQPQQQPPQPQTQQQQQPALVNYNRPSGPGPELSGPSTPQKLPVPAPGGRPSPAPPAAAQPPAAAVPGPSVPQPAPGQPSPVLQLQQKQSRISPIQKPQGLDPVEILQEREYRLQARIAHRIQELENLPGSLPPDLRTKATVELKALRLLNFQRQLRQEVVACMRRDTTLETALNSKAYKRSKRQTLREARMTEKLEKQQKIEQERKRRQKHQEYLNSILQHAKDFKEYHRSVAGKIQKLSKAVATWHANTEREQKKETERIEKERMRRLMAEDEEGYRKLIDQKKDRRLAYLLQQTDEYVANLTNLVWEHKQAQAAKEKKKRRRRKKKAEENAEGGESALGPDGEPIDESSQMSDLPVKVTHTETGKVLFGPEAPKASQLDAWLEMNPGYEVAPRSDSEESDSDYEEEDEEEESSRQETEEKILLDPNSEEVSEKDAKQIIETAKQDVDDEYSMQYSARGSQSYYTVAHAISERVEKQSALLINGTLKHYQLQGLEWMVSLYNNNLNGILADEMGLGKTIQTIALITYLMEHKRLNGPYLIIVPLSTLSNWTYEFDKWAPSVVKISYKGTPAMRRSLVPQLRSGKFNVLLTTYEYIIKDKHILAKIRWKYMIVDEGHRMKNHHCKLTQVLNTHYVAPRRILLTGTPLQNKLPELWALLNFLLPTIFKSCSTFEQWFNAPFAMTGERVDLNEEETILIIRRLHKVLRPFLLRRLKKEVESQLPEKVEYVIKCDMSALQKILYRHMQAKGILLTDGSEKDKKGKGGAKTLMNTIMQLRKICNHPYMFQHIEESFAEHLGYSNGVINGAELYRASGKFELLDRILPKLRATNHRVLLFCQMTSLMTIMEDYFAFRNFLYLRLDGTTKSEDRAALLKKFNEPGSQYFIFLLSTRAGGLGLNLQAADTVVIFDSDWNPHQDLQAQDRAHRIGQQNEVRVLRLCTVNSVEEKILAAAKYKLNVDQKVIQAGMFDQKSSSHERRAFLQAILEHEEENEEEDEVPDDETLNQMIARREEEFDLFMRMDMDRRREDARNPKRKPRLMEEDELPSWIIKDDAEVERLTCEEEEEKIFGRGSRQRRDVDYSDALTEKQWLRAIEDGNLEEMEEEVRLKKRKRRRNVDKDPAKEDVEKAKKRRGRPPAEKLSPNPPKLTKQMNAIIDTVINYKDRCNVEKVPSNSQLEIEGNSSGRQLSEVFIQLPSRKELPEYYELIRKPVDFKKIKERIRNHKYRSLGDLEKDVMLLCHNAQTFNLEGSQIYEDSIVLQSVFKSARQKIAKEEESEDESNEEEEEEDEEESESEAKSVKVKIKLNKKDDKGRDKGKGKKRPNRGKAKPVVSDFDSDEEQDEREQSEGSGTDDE
T1 sequence (P51532 whole entry): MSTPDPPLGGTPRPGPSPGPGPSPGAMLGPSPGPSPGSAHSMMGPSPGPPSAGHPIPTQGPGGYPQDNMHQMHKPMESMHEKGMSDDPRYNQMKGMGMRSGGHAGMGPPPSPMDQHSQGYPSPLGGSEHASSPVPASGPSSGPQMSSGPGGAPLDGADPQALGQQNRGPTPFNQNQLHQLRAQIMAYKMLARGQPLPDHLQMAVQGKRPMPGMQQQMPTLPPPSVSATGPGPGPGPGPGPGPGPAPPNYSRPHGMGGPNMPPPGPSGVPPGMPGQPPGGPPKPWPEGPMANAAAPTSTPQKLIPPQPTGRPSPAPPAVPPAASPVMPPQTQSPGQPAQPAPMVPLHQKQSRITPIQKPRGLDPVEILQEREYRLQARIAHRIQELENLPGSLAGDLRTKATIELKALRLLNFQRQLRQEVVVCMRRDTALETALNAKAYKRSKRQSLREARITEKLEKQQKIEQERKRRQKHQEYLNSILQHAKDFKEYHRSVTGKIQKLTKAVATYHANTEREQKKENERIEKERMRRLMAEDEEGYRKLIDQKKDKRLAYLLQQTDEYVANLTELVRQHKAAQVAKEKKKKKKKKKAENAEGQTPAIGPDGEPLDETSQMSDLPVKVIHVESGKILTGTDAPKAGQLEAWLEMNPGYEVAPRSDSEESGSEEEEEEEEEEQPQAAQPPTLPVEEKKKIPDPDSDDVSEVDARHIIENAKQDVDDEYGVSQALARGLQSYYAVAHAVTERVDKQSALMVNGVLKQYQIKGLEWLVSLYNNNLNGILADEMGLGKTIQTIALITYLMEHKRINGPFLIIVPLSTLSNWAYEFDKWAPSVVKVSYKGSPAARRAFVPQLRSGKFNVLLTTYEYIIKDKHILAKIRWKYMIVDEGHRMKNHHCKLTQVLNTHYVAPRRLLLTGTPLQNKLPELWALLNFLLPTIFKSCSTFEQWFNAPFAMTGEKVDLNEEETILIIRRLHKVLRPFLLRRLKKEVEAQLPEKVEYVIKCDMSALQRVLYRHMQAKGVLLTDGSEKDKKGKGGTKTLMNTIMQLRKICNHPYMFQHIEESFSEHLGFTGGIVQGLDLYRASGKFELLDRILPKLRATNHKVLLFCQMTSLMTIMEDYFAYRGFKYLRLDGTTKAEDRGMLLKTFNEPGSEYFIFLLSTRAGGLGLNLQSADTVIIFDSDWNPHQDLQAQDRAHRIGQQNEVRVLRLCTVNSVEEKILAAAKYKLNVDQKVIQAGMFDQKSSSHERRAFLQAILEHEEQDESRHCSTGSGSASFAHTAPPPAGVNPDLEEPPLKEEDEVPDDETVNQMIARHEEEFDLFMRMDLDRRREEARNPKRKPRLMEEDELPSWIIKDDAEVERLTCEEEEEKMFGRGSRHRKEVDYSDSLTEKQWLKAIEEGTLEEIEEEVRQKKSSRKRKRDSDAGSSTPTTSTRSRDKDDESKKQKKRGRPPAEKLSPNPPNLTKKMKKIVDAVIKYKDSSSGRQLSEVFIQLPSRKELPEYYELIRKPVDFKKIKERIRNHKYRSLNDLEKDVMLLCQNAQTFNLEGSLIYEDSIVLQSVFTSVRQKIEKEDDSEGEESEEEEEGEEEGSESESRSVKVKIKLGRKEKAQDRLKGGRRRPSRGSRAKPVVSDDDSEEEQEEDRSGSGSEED

As to `Cc1ncsc1-c1ccc(CNC(=O)[C@@H]2C[C@@H](O)CN2C(=O)[C@@H](NC(=O)CN2CCC(O[C@H]3C[C@H](Oc4cc(N5[C@@H]6CC[C@H]5CN(c5cc(-c7ccccc7O)nnc5N)C6)ccn4)C3)CC2)C(C)(C)C)cc1` [Compound 243, (2S,4R)-1-((2S)-2-(2-(4-((1r,3S)-3-((4-(3-(3-amino-6-(2-hydroxyphenyl)pyridazin-4-yl)-3,8-diazabicyclo[3.2.1]octan-8-yl)pyridin-2-yl)oxy)cyclobutoxy)piperidin-1-yl)acetamido)-3,3-dimethylbutanoyl)-4-hydroxy-N-(4-(4-methylthiazol-5-yl)benzyl)pyrrolidine-2-carboxamide, tri-formic acid], in assay [1], the DC50 was over 10 nM and the Dmax was over 75%. In addition, in assay [2], the “BRM HiBit Degradation Maximum (%)” value is “A (“A” indicates maximum degradation ≥75%)” and the DC50 was under 10 nM.
For `Cc1ncsc1-c1ccc([C@H](C)NC(=O)[C@@H]2C[C@@H](O)CN2C(=O)[C@@H](NC(=O)CCN2CCN(CCCCC(=O)NCc3ccc(CCOc4cc(-c5ccccc5O)nnc4N)cc3)CC2)C(C)(C)C)cc1` [Compound 265, (2S,4R)-1-((S)-2-(3-(4-(5-((4-(2-((3-amino-6-(2-hydroxyphenyl)pyridazin-4-yl)oxy)ethyl)benzyl)amino)-5-oxopentyl)piperazin-1-yl)propanamido)-3,3-dimethylbutanoyl)-4-hydroxy-N-((S)-1-(4-(4-methylthiazol-5-yl)phenyl)ethyl)pyrrolidine-2-carboxamide], in assay [1], the DC50 is over 1000 nM and the Dmax was under 50%. Moreover, in assay [2], the “BRM HiBit Degradation Maximum (%)” value was “B (“B” indicates maximum degradation ≥50%)” and the DC50 was over 1000 nM.
Take `Nc1nnc(-c2ccccc2O)cc1N1CCN(C(=O)C2CC2CNC(=O)COc2ccc3c(c2)C(=O)N(C2CCC(=O)NC2=O)C3=O)CC1` (stereo not shown) [Compound 78, N-[(2-[4-[3-amino-6-(2-hydroxyphenyl)pyridazin-4-yl]piperazine-1-carbonyl]cyclopropyl)methyl]-2-[[2-(2,6-dioxopiperidin-3-yl)-1,3-dioxoisoindol-5-yl]oxy]acetamide]: the DC50 in assay [1] was over 1000 nM. Besides, in assay [2], the “BRM HiBit Degradation Maximum (%)” value is “C (“C” indicates maximum degradation <50%)” and the DC50 was over 1000 nM.
Turning to `Cc1ncsc1-c1ccc([C@H](C)NC(=O)[C@@H]2C[C@@H](O)CN2C(=O)[C@@H](c2cc(OCCN3CCC(OC4CN(C(=O)c5ccc(CCOc6cc(-c7ccccc7O)nnc6N)cc5)C4)CC3)no2)C(C)C)cc1` [Compound 253, (2S,4R)-1-((R)-2-(3-(2-(4-((1-(4-(2-((3-amino-6-(2-hydroxyphenyl)pyridazin-4-yl)oxy)ethyl)benzoyl)azetidin-3-yl)oxy)piperidin-1-yl)ethoxy)isoxazol-5-yl)-3-methylbutanoyl)-4-hydroxy-N-((S)-1-(4-(4-methylthiazol-5-yl)phenyl)ethyl)pyrrolidine-2-carboxamide], in assay [1], the DC50 was over 1000 nM and the Dmax was under 50%. In assay [2], the “BRM HiBit Degradation Maximum (%)” value is recorded as “A (“A” indicates maximum degradation ≥75%)” and the DC50 was under 10 nM.
On to `Cc1ncsc1-c1ccc(CNC(=O)[C@@H]2C[C@@H](O)CN2C(=O)[C@@H](NC(=O)CCCN2CCN(CCOc3cc(N4[C@@H]5CC[C@H]4CN(c4cc(-c6ccccc6O)nnc4N)C5)ccn3)CC2)C(C)(C)C)cc1` [Compound 242, (2S,4R)-1-((2S)-2-(4-(4-(2-((4-(3-(3-amino-6-(2-hydroxyphenyl)pyridazin-4-yl)-3,8-diazabicyclo[3.2.1]octan-8-yl)pyridin-2-yl)oxy)ethyl)piperazin-1-yl)butanamido)-3,3-dimethylbutanoyl)-4-hydroxy-N-(4-(4-methylthiazol-5-yl)benzyl)pyrrolidine-2-carboxamide], for which, in assay [1], the DC50 is over 1000 nM and the Dmax was under 50%. Besides, in assay [2], the “BRM HiBit Degradation Maximum (%)” value was “A (“A” indicates maximum degradation ≥75%)” and the DC50 is over 100 nM.
`Nc1nnc(-c2ccccc2O)cc1OCCc1ccc(CNCCCCNc2cccc3c2C(=O)N(C2CCC(=O)NC2=O)C3=O)cc1` (stereo not shown) [Compound 107, 4-[[4-([[4-(2-[[3-amino-6-(2-hydroxyphenyl)pyridazin-4-yl]oxy]ethyl)phenyl]methyl]amino)butyl]amino]-2-(2,6-dioxopiperidin-3-yl)isoindole-1,3-dione]: in assay [1], the DC50 is over 1000 nM and the Dmax was over 50%. In assay [2], the “BRM HiBit Degradation Maximum (%)” value is “C (“C” indicates maximum degradation <50%)” and the DC50 is over 1000 nM.
`Nc1nnc(-c2ccccc2O)cc1OCCc1ccc(CNC(=O)COc2cccc3c2C(=O)N(C2CCC(=O)NC2=O)C3=O)cc1` (stereo not shown) [Compound 62, N-[[4-(2-[[3-amino-6-(2-hydroxyphenyl)pyridazin-4-yl]oxy]ethyl)phenyl]methyl]-2-[[2-(2,6-dioxopiperidin-3-yl)-1,3-dioxoisoindol-4-yl]oxy]acetamide]: in assay [1], the DC50 is over 100 nM and the Dmax was over 50%. In addition, in assay [2], the “BRM HiBit Degradation Maximum (%)” value is on record as “C (“C” indicates maximum degradation <50%)” and the DC50 is over 1000 nM.
Turning to `Cc1ncsc1-c1ccc([C@H](C)NC(=O)[C@@H]2C[C@@H](O)CN2C(=O)[C@@H](c2cc(OCCN3CC(OC4CCN(C(=O)c5ccc(CCOc6cc(-c7ccccc7O)nnc6N)cc5)CC4)C3)no2)C(C)C)cc1` [Compound 237, (2S,4R)-1-((R)-2-(3-(2-(3-((1-(4-(2-((3-amino-6-(2-hydroxyphenyl)pyridazin-4-yl)oxy)ethyl)benzoyl)piperidin-4-yl)oxy)azetidin-1-yl)ethoxy)isoxazol-5-yl)-3-methylbutanoyl)-4-hydroxy-N-((S)-1-(4-(4-methylthiazol-5-yl)phenyl)ethyl)pyrrolidine-2-carboxamide], in assay [1], the DC50 is over 100 nM and the Dmax is over 50%. Moreover, in assay [2], the “BRM HiBit Degradation Maximum (%)” value was “A (“A” indicates maximum degradation ≥75%)” and the DC50 is over 10 nM.
Consider `Cc1ncsc1-c1ccc([C@H](C)NC(=O)[C@@H]2C[C@@H](O)CN2C(=O)[C@@H](c2cc(OCCNCCC(=O)NCc3ccc(CCOc4cc(-c5ccccc5O)nnc4N)cc3)no2)C(C)C)cc1` [Compound 230, (2S,4R)-1-((R)-2-(3-(2-((3-((4-(2-((3-amino-6-(2-hydroxyphenyl)pyridazin-4-yl)oxy)ethyl)benzyl)amino)-3-oxopropyl)amino)ethoxy)isoxazol-5-yl)-3-methylbutanoyl)-4-hydroxy-N-((S)-1-(4-(4-methylthiazol-5-yl)phenyl)ethyl)pyrrolidine-2-carboxamide], for which, in assay [1], the DC50 is over 1000 nM and the Dmax is over 75%. Moreover, in assay [2], the “BRM HiBit Degradation Maximum (%)” value is recorded as “A (“A” indicates maximum degradation ≥75%)” and the DC50 is over 100 nM.
With `Nc1nnc(-c2ccccc2O)cc1OCCc1ccc(C(=O)NCCCCNc2ccc3c(c2)C(=O)N(C2CCC(=O)NC2=O)C3=O)cc1` (stereo not shown) [Compound 42, 4-(2-[[3-amino-6-(2-hydroxyphenyl)pyridazin-4-yl]oxy]ethyl)-N-(4-[[2-(2,6-dioxopiperidin-3-yl)-1,3-dioxoisoindol-5-yl]amino]butyl)benzamide], in assay [1], the DC50 is over 1000 nM and the Dmax is under 50%. In assay [2], the “BRM HiBit Degradation Maximum (%)” value is “C (“C” indicates maximum degradation <50%)” and the DC50 is over 1000 nM.
For `Nc1nnc(-c2ccccc2O)cc1OCCc1ccc(CN2CCN(CCOc3cccc4c3C(=O)N(C3CCC(=O)NC3=O)C4=O)CC2)cc1` (stereo not shown) [Compound 126, 4-[2-(4-[[4-(2-[[3-amino-6-(2-hydroxyphenyl)pyridazin-4-yl]oxy]ethyl)phenyl]methyl]piperazin-1-yl)ethoxy]-2-(2,6-dioxopiperidin-3-yl)isoindole-1,3-dione], in assay [1], the DC50 is over 1000 nM and the Dmax was under 50%. In assay [2], the “BRM HiBit Degradation Maximum (%)” value was “C (“C” indicates maximum degradation <50%)” and the DC50 is over 1000 nM.
Turning to `Cc1ncsc1-c1ccc(CNC(=O)[C@@H]2C[C@@H](O)CN2C(=O)[C@@H](NC(=O)CCN2CCC(C3CN(C(=O)c4ccc(CCOc5cc(-c6ccccc6O)nnc5N)cc4)C3)CC2)C(C)(C)C)cc1` [Compound 204, (2S,4R)-1-((S)-2-(3-(4-(1-(4-(2-((3-amino-6-(2-hydroxyphenyl)pyridazin-4-yl)oxy)ethyl)benzoyl)azetidin-3-yl)piperidin-1-yl)propanamido)-3,3-dimethylbutanoyl)-4-hydroxy-N-(4-(4-methylthiazol-5-yl)benzyl)pyrrolidine-2-carboxamide], in assay [1], the DC50 was over 1000 nM and the Dmax was under 50%. Moreover, in assay [2], the “BRM HiBit Degradation Maximum (%)” value is recorded as “B (“B” indicates maximum degradation ≥50%)” and the DC50 was over 1000 nM.
For `CN(CCCCCNc1ccc2c(c1)C(=O)N(C1CCC(=O)NC1=O)C2=O)Cc1ccc(CCOc2cc(-c3ccccc3O)nnc2N)cc1` (stereo not shown) [Compound 151, 5-[[5-([[4-(2-[[3-amino-6-(2-hydroxyphenyl)pyridazin-4-yl]oxy]ethyl)phenyl]methyl](methyl)amino)pentyl]amino]-2-(2,6-dioxopiperidin-3-yl)isoindole-1,3-dione], in assay [1], the DC50 is over 1000 nM and the Dmax is over 50%. In addition, in assay [2], the “BRM HiBit Degradation Maximum (%)” value is reported as “C (“C” indicates maximum degradation <50%)” and the DC50 is over 1000 nM.
Turning to `Nc1nnc(-c2ccccc2O)cc1OCCc1ccc(CNC(=O)CCCCCCCCCCNc2cccc3c2C(=O)N(C2CCC(=O)NC2=O)C3=O)cc1` (stereo not shown) [Compound 72], in assay [1], the DC50 is over 1000 nM and the Dmax was under 50%. Besides, in assay [2], the “BRM HiBit Degradation Maximum (%)” value is on record as “C (“C” indicates maximum degradation <50%)” and the DC50 is over 1000 nM.
